# Results as given in patent publication US7186831B2, “5-halo-2-alkyl[1,2,4]triazolo[1,5-a]pyrimidin-7-amines” (priority 2001, dated 2007).
# Test system: not listed separately
# Test: log P by HPLC
# Type: physicochemical
# Details: EEC directive 79/831 Annex V. A8 by HPLC (gradient method, acetonitrile/0.1% aqueous phosphoric acid)
row,logP,Structure (SMILES)
1,3.78,CC(C)(C)OC(=O)NC1CCN(c2c(-c3ccc(F)cc3F)c(Cl)nc3nc(C4CC4)nn23)CC1 [compound 514]
2,3.69,Cc1nc2nc(Cl)c(-c3c(F)cccc3F)c(NOCc3ccc(Cl)cc3Cl)n2n1 [compound 429]
3,3.18,Cc1nc2nc(Cl)c(-c3c(F)cccc3Cl)c(N3CCSCC3)n2n1 [compound 259]
4,3.36,COC(=O)C1CCCCN1c1c(-c2ccc(F)cc2F)c(Cl)nc2nc(C)nn12 (stereo not shown) [compound 453]
5,3,CCN(CC1CCCO1)c1c(-c2c(F)cccc2F)c(Cl)nc2nc(C)nn12 (stereo not shown) [compound 341]
6,3.28,Cc1nc2nc(Cl)c(-c3ccc(F)cc3F)c(N3CCc4ccccc4C3)n2n1 [compound 300]
7,3.45,Fc1ccc(-c2c(Cl)nc3nc(C4CC4)nn3c2N2CCC(F)CC2)c(F)c1 [compound 513]
8,1.78,CC(=O)NC1CCN(c2c(-c3c(F)cccc3F)c(Cl)nc3nc(C)nn23)CC1 [compound 323]
9,2.02,CNc1c(-c2ccccc2F)c(Cl)nc2nc(C)nn12 [compound 389]
10,3.42,CCN(CC(F)(F)F)c1c(-c2c(F)cc(F)cc2F)c(Cl)nc2nc(C)nn12 [compound 380]
11,2.34,Cc1nc2nc(Cl)c(-c3ccc(F)cc3F)c(N(C)CCC#N)n2n1 [compound 411]
12,2.69,COC(=O)C1CCN(c2c(-c3c(F)cccc3F)c(Cl)nc3nc(C)nn23)CC1 [compound 318]
13,4.36,CC(C)CN(C)c1c(-c2c(F)cc(F)cc2F)c(Cl)nc2nc(C3CC3)nn12 [compound 467]

# Same assay, conditions: HPLC, gradient method, acetonitrile/0.1% aqueous phosphoric acid; EEC directive 79/831 Annex V. A8
chromatographic logP,logP,Structure (SMILES)
3.76,,Fc1cc(F)c(-c2c(Cl)nc3nc(C(F)(F)F)nn3c2NCCC(F)(F)F)c(F)c1 [Example 7]
3.39,,CCc1nc2nc(Cl)c(-c3c(F)cc(F)cc3F)c(N[C@@H](C)C(F)(F)F)n2n1 [Example 4]
3.94,,C[C@H](Nc1c(-c2c(F)cc(F)cc2F)c(Cl)nc2nc(C(F)(F)F)nn12)C(F)(F)F [Example 3]
,1.65,CCN(CCN(C)C)c1c(-c2ccc(F)cc2F)c(Cl)nc2nc(C3CC3)nn12 [compound 723]
,2.45,COC(=O)C(C)Nc1c(-c2c(F)cc(F)cc2F)c(Cl)nc2nc(C)nn12 (stereo not shown) [compound 124]
,4.72,CC1CC(C)CN(c2c(-c3ccc(F)cc3F)c(Cl)nc3nc(C4CC4)nn23)C1 (stereo not shown) [compound 610]
,3.6,CCCCNc1c(-c2ccc(F)cc2F)c(Cl)nc2nc(C3CC3)nn12 [compound 645]
,3.99,CC(Nc1c(-c2c(F)cc(F)cc2F)c(Br)nc2nc(C(F)(F)F)nn12)C(F)(F)F (stereo not shown) [compound 25]
,4.03,CCN(CCOC)c1c(-c2ccc(F)cc2F)c(Cl)nc2nc(C(F)(F)F)nn12 [compound 558]
,3.87,Fc1ccc(-c2c(Cl)nc3nc(C4CC4)nn3c2N2CCCCO2)c(Cl)c1 [compound 785]
,4.61,CC(C)CC(C)Nc1c(-c2ccc(F)cc2Cl)c(Cl)nc2nc(C3CC3)nn12 (stereo not shown) [compound 637]
,3.07,CC(=O)C1CCN(c2c(-c3ccc(F)cc3F)c(Cl)nc3nc(C4CC4)nn23)CC1 [compound 730]
,3.71,CCc1nc2nc(Cl)c(-c3c(F)cc(F)cc3F)c(N(CC)CC)n2n1 [compound 77]
,3.71,Cc1nc2nc(Cl)c(-c3ccc(Cl)cc3Cl)c(N(N)CC(C)C)n2n1 [compound 816]
,3.15,CCc1nc2nc(Cl)c(-c3c(F)cc(F)cc3F)c(NC(C)C)n2n1 [compound 76]
3.64,,Fc1cc(F)c(-c2c(Cl)nc3nc(C(F)(F)F)nn3c2NCC(F)(F)F)c(F)c1 [Example 8]
,3.76,CC1CCCN1c1c(-c2ccc(F)cc2F)c(Cl)nc2nc(C3CC3)nn12 (stereo not shown) [compound 604]
,3.38,CC(C)CNc1c(-c2ccc(F)cc2F)c(Cl)nc2nc(C3CC3)nn12 [compound 644]

chromatographic logP,logP,Structure (SMILES)
,3.42,Cc1nc2nc(Cl)c(-c3c(F)cc(F)cc3F)c(N3OCCCC3C)n2n1 (stereo not shown) [compound 686]
,3.01,Cc1nc2nc(Cl)c(-c3ccc(F)c(Cl)c3)c(NC(C)C)n2n1 [compound 82]
,3.81,CCN(CCOC)c1c(-c2ccc(F)cc2Cl)c(Cl)nc2nc(C3CC3)nn12 [compound 631]
,4.08,CCCCN(CC)c1c(-c2c(F)cc(F)cc2F)c(Cl)nc2nc(C)nn12 [compound 161]
,2.77,Cc1nc2nc(Cl)c(-c3c(F)cccc3Cl)c(NC3CC3)n2n1 [compound 258]
,1.55,Fc1ccc(-c2c(Cl)nc3nc(C4CC4)nn3c2N2CCC(N3CCOCC3)CC2)c(F)c1 [compound 734]
,3.47,COC(=O)C(COC(C)(C)C)Nc1c(-c2c(F)cc(F)cc2F)c(Cl)nc2nc(C)nn12 (stereo not shown) [compound 120]
,4.72,"CC(C)C(C)Nc1c(-c2ccc(Cl)cc2Cl)c(Cl)nc2nc(C3CC3)nn12 (single isomer, unassigned) [compound 757]"
,4.12,"CC(Nc1c(-c2ccc(Cl)cc2Cl)c(Cl)nc2nc(C3CC3)nn12)C(F)(F)F (single isomer, unassigned) [compound 710]"
,3.5,CCNc1c(-c2c(F)cc(F)cc2F)c(Cl)nc2nc(C(F)(F)F)nn12 [compound 102]
,3.06,Cc1nc2nc(Cl)c(-c3c(F)cc(F)cc3F)c(N(N)CC(C)C)n2n1 [compound 129]
,2.54,Cc1nc2nc(Cl)c(-c3c(F)cccc3F)c(NOC3CCCCO3)n2n1 (stereo not shown) [compound 142]
,2.41,CCN(CCC#N)c1c(-c2c(F)cccc2F)c(Cl)nc2nc(C)nn12 [compound 569]
,3.81,Cc1nc2nc(Cl)c(-c3c(F)cc(F)cc3F)c(N3CCCCC3C)n2n1 (stereo not shown) [compound 164]
,3.18,CCN(CC1CCCO1)c1c(-c2ccc(F)cc2F)c(Cl)nc2nc(C)nn12 (stereo not shown) [compound 208]
,1.61,CN(C)CCCN(C)c1c(-c2ccc(F)cc2F)c(Cl)nc2nc(C3CC3)nn12 [compound 665]
,2.94,Cc1nc2nc(Cl)c(-c3ccc(F)cc3Cl)c(N3CCCCN3)n2n1 [compound 691]

# Test system: Podosphaera leucotricha
# Test: Podosphaera test (apple)/protective
# Type: in vivo
# Details: protective, application rate 100 g/ha, evaluation 10 days after inoculation
# Procedure: Podosphaera Test (Apple)/Protective • Solvent: 24.5 parts by weight of acetone • 24.5 parts by weight of dimethylacetamide • Emulsifier: 1 part by weight of alkylaryl polyglycol ether
# To produce a suitable preparation of active compound, 1 part by weight of active compound is mixed with the stated amounts of solvent and emulsifier and the concentrate is diluted with water to the desired concentration.
# To test for protective activity, the young plants are sprayed with the active compound preparation at the application rate indicated. After the spray coating has dried on, the plants are inoculated with an aqueous spore suspension of the apple mildew causative organism Podosphaera leucotricha. The plants are then placed in a greenhouse at about 23° C. and at a relative humidity of about 70%.
# Evaluation is made 10 days after inoculation. 0% denotes an efficacy corresponding to that of the control, while an efficacy of 100% denotes that no infestation is observed.
row,Structure (SMILES),Efficacy in % [%]
1,Fc1cc(F)c(-c2c(Cl)nc3nc(C(F)(F)F)nn3c2NCCC(F)(F)F)c(F)c1 [Example 7],100
2,Fc1cc(F)c(-c2c(Cl)nc3nc(C(F)(F)F)nn3c2NCC(F)(F)F)c(F)c1 [Example 8],100

# Test system: Puccinia recondita
# Test: Puccinia test (wheat)/protective
# Type: in vivo
# Details: protective, application rate 500 g/ha, evaluation 10 days after inoculation
# Procedure: Puccinia Test (Wheat)/Protective • Solvent: 25 parts by weight of N,N-dimethylacetamide • Emulsifier: 0.6 part by weight of alkylaryl polyglycol ether To produce a suitable preparation of active compound, 1 part by weight of active compound is mixed with the stated amounts of solvent and emulsifier and the concentrate is diluted with water to the desired concentration. To test for protective activity, the young plants are sprayed with the active compound preparation at the application rate indicated. After the spray coating has dried on, the plants are sprayed with a conidia suspension of Puccinia recondita. The plants spend 48 hours at 20° C. and 100% relative humidity in an incubation cabin. The plants are then placed in a greenhouse at a temperature of about 20° C. and a relative humidity of 80% in order to promote the development of rust pustules. Evaluation is made 10 days after inoculation. 0% denotes an efficacy corresponding to that of the control, while an efficacy of 100% denotes that no infestation is observed.
row,Structure (SMILES),Efficacy in % [%]
1,C[C@H](Nc1c(-c2c(F)cc(F)cc2F)c(Cl)nc2nc(C(F)(F)F)nn12)C(F)(F)F [Example 3],100

# Test system: Sphaerotheca fuliginea
# Test: Spaerotheca test (cucumber)/protective
# Type: in vivo
# Details: protective, application rate 750 g/ha, evaluation 7 days after inoculation
# Procedure: Spaerotheca Test (Cucumber)/Protective • Solvent: 49 parts by weight of N,N-dimethylformamide • Emulsifier: 1 part by weight of alkylaryl polyglycol ether To produce a suitable preparation of active compound, 1 part by weight of active compound is mixed with the stated amounts of solvent and emulsifier and the concentrate is diluted with water to the desired concentration. To test for protective activity, the young cucumber plants are sprayed with the active compound preparation at the application rate indicated. 1 day after treatment, the plants are inoculated with a spore suspension of Sphaerotheca fuliginea. The plants are then placed in a greenhouse at a temperature of 23° C. and at a relative humidity of 70%. Evaluation is made 7 days after inoculation. 0% denotes an efficacy corresponding to that of the control, while an efficacy of 100% denotes that no infestation is observed.
row,Structure (SMILES),Efficacy in % [%]
1,Fc1cc(F)c(-c2c(Cl)nc3nc(C(F)(F)F)nn3c2NCCC(F)(F)F)c(F)c1 [Example 7],100
2,CCc1nc2nc(Cl)c(-c3c(F)cc(F)cc3F)c(N[C@@H](C)C(F)(F)F)n2n1 [Example 4],93
3,C[C@H](Nc1c(-c2c(F)cc(F)cc2F)c(Cl)nc2nc(C(F)(F)F)nn12)C(F)(F)F [Example 3],93
4,Fc1cc(F)c(-c2c(Cl)nc3nc(C(F)(F)F)nn3c2NCC(F)(F)F)c(F)c1 [Example 8],100
